Test results reported in patent publication US8293529B2, “Method for inducing differentiation of pluripotent stem cells into cardiomyocytes” (Daiichi Sankyo Company, Limited, priority 2006, dated 2012).

How the values were obtained:
[1] = test system: mouse ES cells; experiment: Appearance rate of EBs exhibiting spontaneous beating; type: cell-based
Protocol: Culture for inducing differentiation of ES cells into cardiomyocytes or neurons was accomplished in a routine manner as follows. ES cells were suspended in LIF-free medium, and the resulting suspension was seeded at 500 cells/50 μL per well of a commercially available 96-well culture plate for spheroid formation (Sumilon Celltight Spheroid; Sumitomo Bakelite Co., Ltd., Japan).
In the early stage of differentiation in ES cells, transient elevations in expression of various Wnt genes were observed prior to the appearance of cardiomyocytes. Then, ES cells at this stage were treated with recombinant Wnt proteins to study the myocardial differentiation-inducing effect of the proteins. Induction of ES cell differentiation was accomplished in the same manner as used in Example 1, except that some of the experimental groups were cultured in medium containing a commercially available recombinant WNT-1 (Peprotech), Wnt-3a (R&D systems) or Wnt-5a (R&D systems) protein. Treatment of ES cells in medium supplemented with a recombinant protein of canonical Wnt such as WNT-1 is hereinafter referred to as “Wnt treatment.”
The above canonical Wnt protein treatment is known to inhibit the action of GSK3β within cells and thereby promote stabilization of β-catenin and its transcription activation ability. Then, further studies were performed to confirm that treatment with various drugs capable of promoting stabilization of β-catenin and its transcription activation ability produced a myocardial differentiation-inducing effect on ES cells, as in the case of Wnt treatment. As drugs capable of promoting stabilization of β-catenin and its transcription activation ability, the following five commercially available compounds were used: GSK3β inhibitors BIO (Calbiochem), GSK3β inhibitor VII (Calbiochem), cell-permeable GSK3β peptide inhibitor (L803-mts; Calbiochem) and SB216763 (Biomol), as well as a Wnt agonist (Calbiochem) that promotes the transcription activation ability of β-catenin without GSK3β inhibition. ES cells were induced to differentiate in the same manner as used in the above Examples, and cultured in medium containing the above compounds during the time period between 48 and 120 hours ([…]) after induction of differentiation, as in the case of recombinant Wnt proteins.

[2] = test system: cmES cells; experiment: Marker gene expression in EBs from cmES cells (RT-PCR); type: cell-based, common marmoset; settings: EBs at 10 days after induction; vs untreated group
Protocol: The EBs thus prepared were collected periodically, and total RNA was prepared with an RNeasy mini kit (Qiagen). cDNA was then synthesized with reverse transcriptase and analyzed by PCR to detect expression of common marmoset Wnt-3 gene (cmWnt-3) and β-actin (cmβActin) serving as an endogenous control. The primers used for detection are as shown below.
Moreover, for analysis of expressed genes, EBs were collected at 10 days after induction of differentiation to detect expression of various marker genes in the same manner as used in Example 5. The primers used for detection of common marmoset Nestin, ANP, MLC-2a and MLC-2v transcripts (hereinafter referred to as cmNestin, cmANP, cmMLC-2a and cmMLC-2v, respectively) are as shown below.

[3] = test system: cmES cells; experiment: Immunohistochemical staining of marker proteins in EBs from cmES cells; type: cell-based, common marmoset; settings: EBs at 16 days after induction of differentiation
Protocol: Subsequently, immunohistochemical staining was performed in the same manner as used in Example 2 to confirm that beating cells developed in EBs from the Wnt-treated groups were cardiomyocytes producing specific marker proteins. From EBs in the Wnt-treated groups (Wnt-3a, WNT-1) at 16 days after induction of differentiation, frozen sections were prepared and reacted with anti-sarcomeric myosin antibody, anti-GATA-4 antibody or anti-Nkx-2.5 antibody as a primary antibody. After color reaction, these sections were observed under an optical microscope.

[4] = test system: mouse ES cells; settings: added for 3 days after initiation of differentiation induction (Naito et al.); cited from earlier work

## Wnt-3a
[1]; Wnt proteins added at 10 ng/mL to 50 ng/mL
  occurrence of beating EBs: very good occurrence of beating EBs
[1]; recombinant protein added at 1 ng/mL to 100 ng/mL
  appearance rate of beating EBs: significantly higher than in the untreated group
[1]; similar studies by the applicant, added for 3 days after initiation of induction (Example 2)
  promoting effect on differentiation: no significant promoting effect on differentiation
[2]
  expression of cardiomyocyte marker genes cmANP, cmMLC-2a and cmMLC-2v: significantly stronger expression
[3]
  cells positive for sarcomeric myosin, GATA-4 and Nkx-2.5: the great majority of EB-constituting cells were found to be positive
[4]
  effect on myocardial differentiation from ES cells: promote myocardial differentiation from ES cells
